From patent US11180479B2 (HAPLOGEN GmbH, priority 2017, dated 2021)

Legend:
[1] = biological target: T1, PLA2G16 (Homo sapiens, UniProt P53816); experiment: Enzyme activity assay for PLA2G16 (Red/Green BODIPY PC-A2 fluorescence); type: biochemical; conditions: His-tagged PLA2G16, 4 min pre-incubation, compound 2 nM to 50 μM; first symbol in parentheses
T1 construct: Hexa-His (N); made in house; host or cells: E. coli BL21(DE3)
T1 sequence (P53816 1-162): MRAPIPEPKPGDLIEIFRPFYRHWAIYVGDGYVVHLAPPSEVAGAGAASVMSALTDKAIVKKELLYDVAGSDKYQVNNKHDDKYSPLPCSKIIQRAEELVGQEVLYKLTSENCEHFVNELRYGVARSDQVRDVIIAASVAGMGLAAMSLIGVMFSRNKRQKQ
Description: Purification and Enzyme Activity Assay for PLA2G16
A cDNA for PLA2G16 (NM_007069) was custom-synthesized by Genscript (Piscataway, USA) and inserted into a pET-based bacterial expression vector [Moffatt, B. A. and Studier, F. W. (1986) J. Mol. Biol. 189, 113-130; Rosenberg, A. H., Lade, B. N., Chui, D., Lin, S., Dunn, J. J., and Studier, F. W. (1987) Gene 56, 125-135], enabling the expression of N-terminally Hexa-His-tagged PLA2G16. E. coli BL21(DE3) (Agilent) were transformed with pET-His-PLA2G16 according to the manufacturer's instructions and plated on Carbenicillin-containing agar plates (final concentration: 100 μg/mL). A single clone was inoculated in 100 mL LB medium supplemented with 100 μg/mL Carbenicillin and the inoculated culture was grown at 37° C. overnight in a rotary shaker. On the next day, the bacterial culture was diluted in LB medium supplemented with 100 μg/mL Carbenicillin (30 mL overnight culture in 800 mL total culture volume). Bacteria were grown at 37° C. until the OD600 reached 0.6. Gene expression was induced by addition of 1 mM isopropyl-β-D-thiogalactopyranosid (IPTG) for 2 h at 18° C. Subsequently, bacteria were harvested by centrifugation (15 min; 10,000×g; 4° C.) and frozen at −80° C. The bacterial pellet was resuspended in Buffer A (50 mM Tris/HCl pH 7.5, 500 mM NaCl, 5% glycerol, 5 mM β-Mercaptoethanol and 1 mM PMSF) and lysed by addition of 1 mg/mL lysozyme (Sigma Aldrich) and 100 μg/mL DNasel-(Roche). The sample was incubated at 30° C. for 30 min to allow lysis to occur. Then, the lysate was cleared by centrifugation (15,000×g, 15 min, 4° C.) and incubated with 1.5 mL Ni-NTA agarose suspension (Qiagen) for 60 min at 4° C. The Ni-NTA agarose was washed with 10 mL Buffer A. Bound protein was eluted by applying a manual gradient of Buffer A supplemented with increasing concentrations of imidazole (Sigma Aldrich; 25/50/75/100/250 mM). Purified fractions were analyzed by SDS-PAGE followed by Coomassie staining to assess the purity.
Activity of the protein was assessed as follows:
Red/Green BODIPY® PC-A2 (Invitrogen, 1 mM in DMSO) was mixed with equal volumes of 1,2-Dioleoyl-sn-glycero-3-phosphocholine (DOPC; Sigma Aldrich, 10 mM in Ethanol) and 1,2-Dioleoyl-sn-glycero-3-phospho-rac-(1-glycerol) (DOPG; Sigma Aldrich, 10 mM in Ethanol) and 0.5 volumes of Cholesterol (CHOL; Sigma Aldrich, 10 mM in Ethanol) and vortexed for 5 s. The mixture (Red/Green BODIPY® PC-A2/DOPC/DOPG/CHOL) was diluted 1:91.4 in activity assay buffer (50 mM Tris/HCl pH 8.5, 100 mM NaCl) using a small-orifice pipette tip under constant vortexing. In the following, this preparation will be referred to as the “substrate solution”.
In order to evaluate their inhibitory potential, compounds were dissolved at 10 mM concentration in DMSO and directly spotted into assay plates (Corning, Cat. No. 3576) using acoustic liquid transfer (Labcyte Echo 525). Each compound was spotted at increasing concentrations, ranging from 2 nM to 50 μM (concentration in the final assay volume). 50 μl of PLA2G16 enzyme solution (diluted in activity buffer, supplemented with 5 mM L-Glutathione; Sigma Aldrich) was pre-incubated with compounds for 4 min., followed by addition of 50 μl of substrate solution. Fluorescence was recorded immediately after substrate addition for a total time of 10 min. using a SpectraMax M5 multimode reader (Excitation wavelength: 480 nm, emission wavelength: 530 nm). The relative increase of fluorescence over time is referred to as the enzyme activity. Half-maximal inhibitory concentrations (IC50) were derived by non-linear regression analysis using the drc package in R (R Development. Core Team, 2005).

[2] = test system: picornaviruses (CVB1, HRV-A2, HRV-A23, EV-68); experiment: Anti-picornavirus cytopathic effect (CPE) reduction assay on HeLa H1 cells; type: cell-based; conditions: 48 h, category from averaging EC50 values of four picornaviruses (CVB1, HRV-A2, HRV-A23, EV68), second symbol in parentheses
Description: Anti-Picornavirus Assay in Mammalian Cell Culture
The antiviral activity of selected compounds was tested using a cytopathic effect (CPE) reduction assay on HeLa H1 cells (ATCC CRL-1958). Briefly, cells were seeded in 96-well dishes (2×10^4 cells/well) in DMEM medium (Life technologies) supplemented with 10% FBS and PenStrep solution (100 U/mL Penicillin and 100 μg/mL streptomycin) and incubated at 37° C., 5% CO2 overnight. The next day, cells were pre-treated with serial dilutions of the compound in DMEM medium supplemented with 2% FBS and PenStrep for 2 h at 37° C., 5% CO2. Next, cells were infected with virus (CVB1, HRV-A2, HRV-A23, EV-68) at an multiplicity of infection (MOI) which results in a complete virus-induced CPE within 2 days in control wells (infected and vehicle-treated). After 48 h, supernatants were aspirated and 50 μl/well of CellTiterBlue reagent (Promega) diluted 1:5 in DMEM+2% FBS, was added to the cells. Plates were returned to the incubator and allowed to develop for 1.5 h. After that, plates were equilibrated to RT and subsequently, fluorescence was recorded (Excitation wavelength: 560 nm; emission wavelength: 590 nm) using a SpectraMax M5 multimode plate reader. Viability of cells was calculated according to the formula: V=(RFUCpd−RFUVeh/(RFUM−RFUVeh), where RFUCpd refers to infected and compound-treated cells, RFUVeh to infected and vehicle-treated cells and RFUM to uninfected and vehicle treated cells. Half-maximal effective concentrations (EC50) were calculated by non-linear regression analysis using the drc package in R (R Development. Core Team, 2005). EC50 categories as presented in Table 2 were calculated by averaging the EC50 values from four picornaviruses (CVB1, HRV-A2, HRV-A23, EV68).

Structure (SMILES)	IC50 [1]	EC50 [2]
CC(F)(F)CNC(=O)C(=O)[C@@H]1CNC(=O)[C@H]1c1ccccc1 (single isomer, unassigned) [FP-87]	1000 to 10000 nM	> 10000 nM
O=C(NC1CC1)C(=O)[C@H]1CN(c2ccnc(Cl)n2)C(=O)[C@@H]1Cc1ccccc1 (racemic) [FP-60, Rac-2-[(3R,4R)-4-benzyl-1-(2-chloropyrimidin-4-yl)-5-oxopyrrolidin-3-yl]-N-cyclopropyl-2-oxoacetamide]	< 1000 nM	1000 to 10000 nM
O=C(NCCC1CC1)C(=O)[C@H]1CNC(=O)[C@@H]1c1ccccc1 (racemic) [FP-24, Rac-N-(2-cyclopropylethyl)-2-oxo-2-[(3R,4S)-5-oxo-4-phenylpyrrolidin-3-yl]acetamide]	< 1000 nM	< 1000 nM
CC(F)(F)CNC(=O)C(=O)[C@H]1CNC(=O)[C@@H]1c1ccc(F)cc1 (racemic) [FP-26, Rac-N-(2,2-difluoropropyl)-2-[(3R,4S)-4-(4-fluorophenyl)-5-oxopyrrolidin-3-yl]-2-oxoacetamide]	< 1000 nM	1000 to 10000 nM
CC(C)CNC(=O)C(=O)[C@H]1CN(CCN2CCCC2=O)C(=O)[C@@H]1Cc1ccccc1 (racemic) [FP-47, Rac-2-[(3R,4R)-4-benzyl-5-oxo-1-[2-(2-oxopyrrolidin-1-yl)ethyl]pyrrolidin-3-yl]-N-(2-methylpropyl)-2-oxoacetamide]	< 1000 nM	1000 to 10000 nM
O=C(NC1CC1)C(=O)[C@H]1CN(c2cc(Cl)cc(OCc3ccccc3)n2)C(=O)[C@@H]1Cc1ccccc1 (racemic) [FP-72, Rac-2-[(3R,4R)-4-benzyl-1-[6-(benzyloxy)-4-chloropyridin-2-yl]-5-oxopyrrolidin-3-yl]-N-cyclopropyl-2-oxoacetamide]	< 1000 nM	< 1000 nM
CC(C)NC(=O)C(=O)[C@H]1CNC(=O)[C@@H]1c1ccc(F)cc1 (racemic) [FP-27, Rac-2-[(3R,4S)-4-(4-fluorophenyl)-5-oxopyrrolidin-3-yl]-2-oxo-N-(propan-2-yl)acetamide]	< 1000 nM	1000 to 10000 nM
Cn1ncnc1CN1C[C@H](C(=O)C(=O)NC2CC2)[C@@H](Cc2ccc(F)cc2)C1=O (racemic) [FP-52, Rac-N-cyclopropyl-2-[(3R,4R)-4-[(4-fluorophenyl)methyl]-1-[(1-methyl-1H-1,2,4-triazol-5-yl)methyl]-5-oxopyrrolidin-3-yl]-2-oxoacetamide]	< 1000 nM	> 10000 nM
CCNC(=O)C(=O)[C@H]1CN(c2ncccn2)C(=O)[C@@H]1Cc1ccccc1 (racemic) [FP-59, Rac-2-[(3R,4R)-4-benzyl-5-oxo-1-(pyrimidin-2-yl)pyrrolidin-3-yl]-N-ethyl-2-oxo-acetamide]	< 1000 nM	1000 to 10000 nM
CC(C)CNC(=O)C(=O)[C@H]1CN(CC(=O)N(C)C)C(=O)[C@@H]1Cc1ccccc1 (racemic) [FP-44, Rac-2-[(3R,4R)-3-benzyl-4-{[(2-methylpropyl)carbamoyl]carbonyl}-2-oxopyrrolidin-1-yl]-N,N-dimethylacetamide]	< 1000 nM	< 1000 nM
CC(F)(F)CNC(=O)C(=O)[C@H]1CN(c2cccc(=O)[nH]2)C(=O)[C@@H]1Cc1ccccc1 (racemic) [FP-74, Rac-2-[(3R,4R)-4-benzyl-5-oxo-1-(6-oxo-1,6-dihydropyridin-2-yl)pyrrolidin-3-yl]-N-(2,2-difluoropropyl)-2-oxoacetamide]	< 1000 nM	< 1000 nM
Cn1cc(N2C[C@H](C(=O)C(=O)NC3CC3)[C@@H](Cc3ccccc3)C2=O)cn1 (racemic) [FP-75, Rac-2-[(3R,4R)-4-benzyl-1-(1-methyl-1H-pyrazol-4-yl)-5-oxopyrrolidin-3-yl]-N-cyclopropyl-2-oxoacetamide]	< 1000 nM	< 1000 nM
O=C(NC1CC1)C(=O)[C@H]1CN(c2cccc(=O)[nH]2)C(=O)[C@@H]1Cc1ccccc1 (racemic) [FP-70, Rac-2-[(3R,4R)-4-benzyl-5-oxo-1-(6-oxo-1,6-dihydropyridin-2-yl)pyrrolidin-3-yl]-N-cyclopropyl-2-oxoacetamide]	< 1000 nM	< 1000 nM

Other lines, results leading:

IC50 [1]	EC50 [2]	Structure (SMILES)
< 1000 nM	1000 to 10000 nM	CNC(=O)CN1C[C@H](C(=O)C(=O)NCC(C)C)[C@@H](Cc2ccccc2)C1=O (racemic) [FP-43, Rac-2-[(3R,4R)-4-benzyl-1-[(methylcarbamoyl)methyl]-5-oxopyrrolidin-3-yl]-N-(2-methylpropyl)-2-oxoacetamide]
< 1000 nM	< 1000 nM	O=C(NCC1CC1)C(=O)[C@H]1CNC(=O)[C@@H]1c1ccccc1 (racemic) [FP-10, Rac-N-(cyclopropylmethyl)-2-oxo-2-[(3R,4S)-5-oxo-4-phenylpyrrolidin-3-yl]acetamide]
< 1000 nM	1000 to 10000 nM	O=C(NC1CC1)C(=O)[C@@H]1CN(c2cncnc2)C(=O)[C@H]1Cc1ccccc1 (single isomer, unassigned) [FP-90]
1000 to 10000 nM	> 10000 nM	CC(C)CNC(=O)C(=O)[C@@H]1CN(CC(=O)N(C)C)C(=O)[C@H]1Cc1ccccc1 (single isomer, unassigned) [FP-91]
< 1000 nM	1000 to 10000 nM	CCNC(=O)C(=O)[C@H]1CNC(=O)[C@@H]1c1ccccc1 (racemic) [FP-15, Rac-N-ethyl-2-oxo-2-[(3R,4S)-5-oxo-4-phenylpyrrolidin-3-yl]acetamide]
< 1000 nM	< 1000 nM	CCNC(=O)C(=O)[C@H]1CNC(=O)[C@@H]1Cc1ccc(F)cc1 (racemic) [FP-30, Rac-N-ethyl-2-[(3R,4R)-4-[(4-fluorophenyl)methyl]-5-oxopyrrolidin-3-yl]-2-oxoacetamide]
